Data taken from patent US6964763B1, “Methods and compositions for inhibiting HIV infectivity and blocking chemokine activity” (priority 1997, dated 2005).
Where a SMILES comes first, the peptide text is derived from it.

Assays:
HIV-1 isolate IIIB = assay: HIV-1 infectivity assay, virus pre-incubated with TSP1 or saliva, p24 ELISA day 7; type: cell-based
Protocol: HIV-1 isolate IIIB was pre-incubated in the absence of TSP1, or with various concentrations of purified TSP1 for 1 hour at 37° C. Pre-incubated virus-TSP1 mixtures were added to target cells either directly (−), or first passed through 0.2 μm filters (+). Phorbol myrisate acetate (“PMA”) activated primary peripheral blood mononuclear cells (“PBMC”), SK23 (T-cell line) or U937 (promonocytic line) were inoculated with the multiplicities of infection (“moi”) indicated. After an additional 1 hour at 37° C., infected cells were washed, cultured for 7 days, and HIV-1 p24 antigen measured by ELISA. Inhibition is expressed for a single data set as percent of maximum p24 detected in the absence of TSP1.
PMA-stimulated primary PBMC were infected with 0.02 moi HIV/IIIB that had been pre-incubated with TSP1 alone, or with LIMPII fusion protein LFP75-155 alone or in the presence of TSP1, and filtered prior to incubation as in FIG. 7. TSP-mediated inhibition is expressed as percent decrease in p24 relative to maximum p24 detected in the absence of TSP 1. Data shown represent the average of two independent experiments (error as SD).
CD4+T lymphoblastoid (SK23, Jurkat) and promonocytic (U937) cell lines, or peripheral blood mononuclear cells (“PBMC”) obtained from HIV seronegative donors and activated with phytohemagglutinin (“PHA”, 2 μg/ml for 72 hours), were cultured in RPMI 1640, 5% fetal bovine serum (“FBS”, frozen/thawed and complement-inactivated 30 minutes at 56° C.), 100 U/ml penicillin and 100 μg/ml streptomycin (GIBCO/BRL, Grand Island, N.Y.). PBMC medium also contained 32 U/ml interleukin-2 (Sigma Chemical Co., St. Louis, Mo.). FBS samples were pre-screened to assure that levels of TSP were<10 μg/ml. Acute HIV infection was performed using HIV-1 isolate IIIB stock virus as previously described (Laurence et al., “Human Immunodeficiency Virus Infection of Helper T-Cell Clones: Early Proliferative Defects Despite Intact Antigen-Specific Recognition and Interleukin 4 Secretion,” J. Clin. Invest., 83:1843-1848 (1989); Laurence et al., “Human Immunodeficiency Virus Infection of Monocytes: Relationship to Fc-Gamma Receptors and Antibody-Dependent Viral Enhancement,” Immunology, 70:338-343 (I 990), which are hereby incorporated by reference). Briefly, 2.5×10^5 target cells were exposed to stock virus at a moi of either 0.02 or 0.15 for 2 hours at 37° C., washed once with PBS, and re-plated in tissue culture-treated microwells with 0.3 ml fresh culture medium. At 3-4 days post-inoculation, one half of culture supernatant from each well was replaced with fresh medium. HIV activity was determined after 7 days using an ELISA antigen capture assay for HIV-1 p24 (gag) core protein (Dupont Medical Products, Boston, Mass.) of Triton X-100 solubilized culture supernatants.
• 100 μl of HIV-1/IIIB inocula were mixed with 100 μl of various concentrations of whole saliva, salivary fluid fractions, or purified platelet TSP1 diluted in serum-free cell culture medium, and pre-incubated for 2 hours at 37° C. Then, 10-fold serial dilutions were added directly to target cell cultures for assay of infectivity. In some experiments, pre-incubated virus-saliva/TSP mixtures were filtered through 0.2 μm nitrocellulose syringe filters (Gelman Sciences, Ann Arbor, Mich.) prior to inoculation of target cells. Salivary TSP1 Depletion Experiments

[1] = tested on: CD4-gp120 complex formation; assay: Competitive inhibition of 125I-CD4 binding to immobilized gp120; set-up: species or system HIV-1 (MN and LAI isolates); conditions: 10-fold molar excess (0.5 μM) competitor, 50 nM 125I-CD4, MN and LAI gp120
Protocol: FIG. 5 is a graph showing competitive inhibition of ^125I-CD4 binding to gp120. […] Samples were incubated, and bound TSP1 was measured as in FIG. 2. A single data set of triplicate samples (η=3, error as SD) is shown.
(§1) Radiolabeling was performed with Na[^125I]
These observations support a role for salivary TSP1 as a direct inhibitor of HIV infectivity.

gp120 (LAI isolate) = target: T1, gp120 (LAI isolate) (Human immunodeficiency virus type 1 group M subtype B, UniProt P03377); type: binding, HIV-1
T1 construct: baculovirus-expressed HIV-1 gp120 derived from LAV and MN isolates; host or cells: baculovirus expression system
Protocol: Increasing concentrations of soluble ^125I-labeled recombinant gp120LAV (nM -1μM) were incubated with immobilized ligand for 2 hours at 37° C., and bound radioactivity measured as in FIGS. 2A and 2B. […] This plot represents a single data set of triplicate samples (72=2, errors as SD).
Briefly, TSP1 (5-10 μg/ml) or fusion proteins and peptides (10-20 μg/ml) were immobilized on detachable 96-well microtiter plate strips (Immulon-4 Remov-a-well, Dynatech Laboratories, Inc.), by overnight incubation at 4° C. in carbonate buffer (100 mM Na2CO3/1 mM MgCl2/0.02% NaN3, pH 9.8). Washed wells were blocked with 0.5% bovine serum albumin (“BSA”), then incubated in triplicate with soluble radiolabeled ligand for 2.5 hours at 37° C. After extensive washing in 50 mM Tris pH 7.5, 150 mM NaCl, 0.5% Tween-20 (TBS-Tween), bound radioactivity was quantified by gamma counter. […] Specific activity of Na[^125I] was determined for each experiment, ranging from 0.06-1.0 μCi/μg. Specific binding was determined as quenchable in the presence of excess unlabeled ligand, above background binding to BSA-coated wells.
The gp120 envelope protein was tested to determine whether it shared this same specificity.

CD4 = target: T2, CD4 (Homo sapiens, UniProt P01730); assay: Solid phase binding of 125I-CD4 to immobilized TSP1 and TSP analog
T2 construct: CHO cell-expressed soluble CD4; host or cells: CHO cells
Protocol: FIG. 12 is a graph showing the binding of ^125I-CD4 to TSP1 and a TSP analog. Increasing concentrations of soluble ^125I-labeled CD4 (0.1μM -1.0 μM) were added to immobilized TSP1, CVSTCG polypeptide (SEQ. ID. No. 1). Samples were incubated and bound ^125I-labeled CD4 measured by solid-binding radio-amino assay, […].
as §1

RANTES = target: T3, RANTES (Homo sapiens, UniProt P13501); assay: Solid phase binding of 125I-RANTES to immobilized TSP
T3 sequence (P13501 24-91): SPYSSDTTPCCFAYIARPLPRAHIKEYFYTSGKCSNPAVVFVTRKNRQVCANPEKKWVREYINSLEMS
Protocol: FIG. 9 is a graph showing the binding of ^125I-RANTES to TSP1. Increasing concentrations of soluble ^125I-labeled RANTES (0.01 μM -10.0 μM) were added to immobilized TSP1. Samples were incubated and bound ^125I-labeled RANTES measured by solid-binding radio-amino assay.
FIG. 10 is a graph showing the Hanes analysis of “^125-RANTES binding to immobilized TSP1. The Hanes analysis provides a measure of assessing the possibility of binding one or more factors to a given molecule.
as §1
In solid phase assays, ^125I-RANTES binded to immobilized TSP. […] Estimated stoichiometry at equilibrium was low (˜0.5 RANTES molecule for every 10 TSP monomer), although the steep slope of the second phase indicated a cooperative interaction (Hanes plot, FIG. 10). One interpretation of the data is that RANTES homodimerization is favored over binding to TSP. At a concentration that shifts equilibrium toward formation of the heterologous complex, positive cooperativity likely reflects a higher apparent affinity of RANTES monomers for binding to TSP, with an increase in monomers being a function of the odd number of sites presented by TSP homotrimers.

[2] = target: recombinant HIV-1 gp160 (gp120 non-covalently linked to gp41) (Human immunodeficiency virus type 1 group M subtype B, UniProt P03375)
Protocol: Increasing concentrations of soluble ^125I-labeled TSP1 (1 nM-μM) were added to immobilized recombinant HIV-1 gp160 for 3 hours at 22° C., and bound TSP1 measured after extensive washing. Non-linear curve fit was generated with Excell™ version 5.0. Apparent affinity was estimated from Scatchard analysis. (n=2; error calculated as standard deviation, SD).
A fixed concentration of ^125I-labeled TSP 1(50 nM) was added to immobilized rgp 160 in the absence or presence of 10-fold molar excess (0.5 μM) unlabeled TSP1, fusion protein LFP75-155 containing the LIMPII TSP binding domain (aa 75-155), or downstream fusion protein LFP 156-243. Samples were incubated, and bound TSP 1 was measured as in FIG. 2A. Plots represent single data sets of triplicate samples. (n=3, error as SD).
Briefly, TSP1 (5-10 μg/ml) or fusion proteins and peptides (10-20 μg/ml) were immobilized on detachable 96-well microtiter plate strips (Immulon-4 Remov-a-well, Dynatech Laboratories, Inc.), by overnight incubation at 4° C. in carbonate buffer (100 mM Na2CO3/1 mM MgCl2/0.02% NaN3, pH 9.8). Washed wells were blocked with 0.5% bovine serum albumin (“BSA”), then incubated in triplicate with soluble radiolabeled ligand for 2.5 hours at 37° C. After extensive washing in 50 mM Tris pH 7.5, 150 mM NaCl, 0.5% Tween-20 (TBS-Tween), bound radioactivity was quantified by gamma counter. Radiolabeling was performed with Na[^125I] […] Specific activity of Na[^125I] was determined for each experiment, ranging from 0.06-1.0 μCi/μg. Specific binding was determined as quenchable in the presence of excess unlabeled ligand, above background binding to BSA-coated wells.

CD4 surface expression = assay: Cell surface expression of CD4 by flow cytometry; type: cell-based, human; conditions: 100 μg/ml TSP1, 3 days; Jurkat, SK23, PHA-activated PBMC
Protocol: CD4 surface expression on HIV-1 infected or uninfected U937 cells was evaluated by indirect immunofluorescence flow cytometry using anti-CD4 mAb Leu3, as detailed elsewhere (Laurence et al., “Human Immunodeficiency Virus Infection of Helper T-Cell Clones: Early Proliferative Defects Despite Intact Antigen-Specific Recognition and Interleukin 4 Secretion,” J. Clin. Invest., 83:1843-1848 (1989), which is hereby incorporated by reference).
Another mechanism to explain TSP-mediated blockade to HIV infection would be a direct effect on target cells, whereby alterations in cell function would decreased the capacity to support productive infection. To address whether exogenous purified TSP1 induced down-modulation of the high affinity HIV receptor, CD4+ Jurkat and SK23 T-cell lines, as well as PHA-activated PBMC, were monitored for differences in CD4 surface expression after culture for 3 days in the absence or presence of 100 μg/ml TSP1. By flow cytometric analysis of cells stained with fluorescein-conjugated anti-CD4 IgG, no change in relative fluorescence intensity or percent CD4+cell was detected.

[3] = tested on: monocytotropic strains of HIV-1, p13 and HA593; assay: HIV-1 infectivity assay with monocytotropic patient isolates; type: cell-based; conditions: 100 μg/ml TSP1, viral moi 0.8

Compound: fibrinogen [reference compound]
- effect on HIV-1 infection of PBMC (in words) (HIV-1 isolate IIIB; same system as TSP1, pre-filtered): no effect

Compound: VGSCCT [scrambled control peptide, reference compound]
- inhibition of 125I-CD4 binding to immobilized gp120 [1]: enhanced binding
- binding of 125I-gp120 to immobilized peptide (in words) (gp120 (LAI isolate)): inefficient binding

Compound: thrombospondin-1 [TSP1]
- binding of 125I-CD4 to immobilized ligand (in words) (CD4): concentration dependent saturatable manner
- estimated stoichiometry at equilibrium (RANTES): ~0.5 RANTES molecule for every 10 TSP monomer
- Kd (RANTES; saturatable, biphasic higher order kinetics, read-out: half maximal binding of 125I-RANTES to immobilized TSP): ~330 nM
- inhibition of 125I-TSP1 binding to gp160 ([2]; 10-fold molar excess (0.5 μM) unlabeled competitor, 50 nM 125I-TSP1): 94±6%
- Kd ([2]; read-out: apparent affinity of TSP1 binding to immobilized recombinant gp160, soluble 125I-TSP1, Scatchard analysis): ~250 nM
- inhibition of 125I-CD4 binding to immobilized gp120 [1]: complete inhibition
- change in relative fluorescence intensity or percent CD4+ cells (CD4 surface expression): no change
- inhibition of HIV infectivity, strains p13 and HA593 [3]: ≥ 98±1%
- reduction of HIV-1 infection of PHA-activated donor PBMC (p24) (HIV-1 isolate IIIB; 2-10 μg/ml TSP1, pre-filtered): > 83%
- reduction of HIV-1 infectivity after brief exposure (HIV-1 isolate IIIB; 5 minutes exposure of TSP-virion mixture, 1 μg/ml TSP1): > 50%
- inhibition of HIV-1 IIIB infection, SK23 (HIV-1 isolate IIIB; SK23 CD4+ T-lymphoblastoid cell line): ≥ 90.7%
- inhibition of HIV-1 IIIB infection, U937 (HIV-1 isolate IIIB; U937 monocytoid cell line): ≥ 83.0%
- inhibition of HIV-1 on direct addition of TSP1 (HIV-1 isolate IIIB; no filtration, only with high concentration of TSP1 and low moi inoculum): 50-75%

Compound: GRGDS (GRGDA) [reference compound]
- inhibition of 125I-CD4 binding to immobilized gp120 [1]: 4±4%
- binding of 125I-gp120 to immobilized peptide (in words) (gp120 (LAI isolate)): inefficient binding

Compound: CC(C)[C@H](NC(=O)[C@H](CO)NC(=O)[C@@H](N)CS)C(=O)N[C@H](C(=O)N[C@@H](CS)C(=O)NCC(=O)O)[C@@H](C)O [CSVTCG, cys-ser-val-thr-cys-gly] (H-CSVTCG-OH; N-terminus and C-terminus assumed)
- binding of 125I-CD4 to immobilized ligand (in words) (CD4): binded directly
- inhibition of 125I-CD4 binding to immobilized gp120 [1]: 53±9%
